Test results reported in ChEMBL document CHEMBL5665443, “Enzyme Inhibitor Single Concentration assay results for EUbOPEN Chemogenomics Library” (2024).

Key:
Conditions in all cases: Hit No
[1] = molecular target: Methyl-CpG-binding domain protein 4 (Homo sapiens) (UniProt O95243);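 note: MBD4 activity read as fluorescence at 594 nm from cleavage and release of a quenched duplex DNA oligonucleotide, with APE1 coupled to incise the strand and raise turnover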
Description: Inhibition of MBD4 by quantifying inhibition of MBD4-mediated cleavage and dissociation of quenched duplex DNA oligonucleotides, measured as fluorescence at 594 nm. To generate a functional strand incision and increase turn-over this assay is coupled to APE1.

[2] = molecular target: T1, Adenine DNA glycosylase (Homo sapiens) (UniProt Q9UIF7);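 note: human MUTYH activity read as 594 nm fluorescence from cleavage and release of a quenched DNA duplex, coupled with APE1 for strand incision, lower signal meaning inhibition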
T1 sequence (whole entry): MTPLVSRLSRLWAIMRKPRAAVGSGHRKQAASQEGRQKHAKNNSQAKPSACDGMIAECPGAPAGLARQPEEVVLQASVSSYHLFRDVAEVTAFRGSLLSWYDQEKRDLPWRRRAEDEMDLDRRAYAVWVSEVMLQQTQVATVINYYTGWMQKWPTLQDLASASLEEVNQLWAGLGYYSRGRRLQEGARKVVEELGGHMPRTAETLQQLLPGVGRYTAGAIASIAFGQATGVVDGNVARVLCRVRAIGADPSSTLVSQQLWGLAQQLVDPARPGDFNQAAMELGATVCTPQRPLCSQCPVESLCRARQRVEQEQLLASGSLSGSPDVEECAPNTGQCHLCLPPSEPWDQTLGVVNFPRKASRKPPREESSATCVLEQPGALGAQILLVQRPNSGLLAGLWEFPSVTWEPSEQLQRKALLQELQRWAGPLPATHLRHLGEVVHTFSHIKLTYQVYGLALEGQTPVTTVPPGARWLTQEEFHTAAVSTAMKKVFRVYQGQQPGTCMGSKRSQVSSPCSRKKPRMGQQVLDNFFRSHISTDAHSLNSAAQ
Description: Inhibition of MUTYH by quantifying inhibition of MUTYH-mediated cleavage and dissociation of quenched duplex DNA oligonucleotides, measured as fluorescence at 594 nm. To generate a functional strand incision and increase turn-over this assay is coupled to APE1.

[3] = molecular target: Endonuclease 8-like 1 (Homo sapiens) (UniProt Q96FI4);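 note: fluorescence at 594 nm from quenched duplex DNA oligonucleotides released by NEIL1 cleavage and strand separation, reported as reduction of this enzyme activity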
Description: Inhibition of NEIL1 by quantifying inhibition of NEIL1-mediated cleavage and dissociation of quenched duplex DNA oligonucleotides, measured as fluorescence at 594 nm.

[4] = molecular target: T2, Endonuclease 8-like 2 (Homo sapiens) (UniProt Q969S2);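 note: fluorescence at 594 nm reports NEIL2 cutting and release of a quenched double-stranded DNA oligo substrate, reduced signal read as inhibition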
T2 sequence (whole entry): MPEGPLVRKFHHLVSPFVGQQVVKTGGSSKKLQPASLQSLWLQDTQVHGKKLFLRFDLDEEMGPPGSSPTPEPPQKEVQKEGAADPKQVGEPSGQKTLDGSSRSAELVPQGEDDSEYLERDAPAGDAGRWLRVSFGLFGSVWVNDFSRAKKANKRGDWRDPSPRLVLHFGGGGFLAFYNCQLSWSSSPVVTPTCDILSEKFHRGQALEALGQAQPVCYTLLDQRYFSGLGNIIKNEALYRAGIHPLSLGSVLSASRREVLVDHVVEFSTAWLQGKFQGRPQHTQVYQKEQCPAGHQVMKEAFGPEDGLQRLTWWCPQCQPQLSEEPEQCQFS
Description: Inhibition of NEIL2 by quantifying inhibition of NEIL2-mediated cleavage and dissociation of quenched duplex DNA oligonucleotides, measured as fluorescence at 594 nm.

[5] = molecular target: T3, Endonuclease III-like protein 1 (Homo sapiens) (UniProt P78549);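 note: enzyme assay tracking NTHL1 cutting and release of a quenched double-stranded DNA oligo substrate, read as fluorescence at 594 nm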
T3 sequence (whole entry): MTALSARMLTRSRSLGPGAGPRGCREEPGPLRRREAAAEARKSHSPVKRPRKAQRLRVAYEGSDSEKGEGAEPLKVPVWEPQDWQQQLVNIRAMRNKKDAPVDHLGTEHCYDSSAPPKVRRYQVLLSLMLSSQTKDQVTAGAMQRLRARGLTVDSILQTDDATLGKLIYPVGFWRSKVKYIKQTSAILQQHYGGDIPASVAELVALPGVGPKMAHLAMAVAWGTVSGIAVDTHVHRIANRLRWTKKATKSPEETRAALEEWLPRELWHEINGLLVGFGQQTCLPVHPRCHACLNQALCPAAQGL
Description: Inhibition of NTHL1 by quantifying inhibition of NTHL1-mediated cleavage and dissociation of quenched duplex DNA oligonucleotides, measured as fluorescence at 594 nm.

[6] = molecular target: N-glycosylase/DNA lyase (Homo sapiens) (UniProt O15527);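 note: OGG1 cleavage of a quenched duplex DNA oligonucleotide, coupled to APE1 for strand incision, read as fluorescence at 594 nm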
Description: Inhibition of OGG1 by quantifying inhibition of OGG1-mediated cleavage and dissociation of quenched duplex DNA oligonucleotides, measured as fluorescence at 594 nm. To generate a functional strand incision and increase turn-over this assay is coupled to APE1.

[7] = molecular target: T4, Single-strand selective monofunctional uracil DNA glycosylase (Homo sapiens) (UniProt Q53HV7);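 note: enzymatic SMUG1 assay coupled with APE1, reading fluorescence at 594 nm released when a quenched double-stranded DNA oligonucleotide substrate is cleaved and separated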
T4 sequence (whole entry): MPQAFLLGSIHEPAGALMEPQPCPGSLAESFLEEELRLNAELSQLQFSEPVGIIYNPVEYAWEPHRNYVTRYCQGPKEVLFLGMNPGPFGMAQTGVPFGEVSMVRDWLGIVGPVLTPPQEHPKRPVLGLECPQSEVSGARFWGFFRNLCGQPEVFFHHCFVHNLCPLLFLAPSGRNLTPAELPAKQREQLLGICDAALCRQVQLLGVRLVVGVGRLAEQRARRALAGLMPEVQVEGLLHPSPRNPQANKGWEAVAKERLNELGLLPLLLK
Description: Inhibition of SMUG1 by quantifying inhibition of SMUG1-mediated cleavage and dissociation of quenched duplex DNA oligonucleotides, measured as fluorescence at 594 nm. To generate a functional strand incision and increase turn-over this assay is coupled to APE1.

[8] = molecular target: G/T mismatch-specific thymine DNA glycosylase (Homo sapiens) (UniProt Q13569);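 note: human TDG cleavage of quenched duplex DNA oligonucleotides coupled to APE1, strand release read as fluorescence at 594 nm, inhibition of TDG activity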
Description: Inhibition of TDG by quantifying inhibition of TDG-mediated cleavage and dissociation of quenched duplex DNA oligonucleotides, measured as fluorescence at 594 nm. To generate a functional strand incision and increase turn-over this assay is coupled to APE1.

[9] = molecular target: Uracil-DNA glycosylase (Homo sapiens) (UniProt P13051);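 note: UNG excision on a quenched double-stranded DNA oligo probe, with APE1 added for strand incision and turnover, read as fluorescence at 594 nm as strands separate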
Chain of Uracil-DNA glycosylase (Homo sapiens) (P13051 whole entry): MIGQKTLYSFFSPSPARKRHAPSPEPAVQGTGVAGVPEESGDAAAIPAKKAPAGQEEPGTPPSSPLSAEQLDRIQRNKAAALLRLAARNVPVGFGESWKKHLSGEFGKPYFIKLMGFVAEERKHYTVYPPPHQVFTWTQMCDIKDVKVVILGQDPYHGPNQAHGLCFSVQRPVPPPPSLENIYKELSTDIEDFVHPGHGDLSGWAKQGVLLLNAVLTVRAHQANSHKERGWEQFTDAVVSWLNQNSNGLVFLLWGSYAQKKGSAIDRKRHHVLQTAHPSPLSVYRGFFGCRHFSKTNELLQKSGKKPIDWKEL
Description: Inhibition of UNG by quantifying inhibition of UNG-mediated cleavage and dissociation of quenched duplex DNA oligonucleotides, measured as fluorescence at 594 nm. To generate a functional strand incision and increase turn-over this assay is coupled to APE1.

Chain of Methyl-CpG-binding domain protein 4 (Homo sapiens) (O95243 whole entry, the tested form may be a part): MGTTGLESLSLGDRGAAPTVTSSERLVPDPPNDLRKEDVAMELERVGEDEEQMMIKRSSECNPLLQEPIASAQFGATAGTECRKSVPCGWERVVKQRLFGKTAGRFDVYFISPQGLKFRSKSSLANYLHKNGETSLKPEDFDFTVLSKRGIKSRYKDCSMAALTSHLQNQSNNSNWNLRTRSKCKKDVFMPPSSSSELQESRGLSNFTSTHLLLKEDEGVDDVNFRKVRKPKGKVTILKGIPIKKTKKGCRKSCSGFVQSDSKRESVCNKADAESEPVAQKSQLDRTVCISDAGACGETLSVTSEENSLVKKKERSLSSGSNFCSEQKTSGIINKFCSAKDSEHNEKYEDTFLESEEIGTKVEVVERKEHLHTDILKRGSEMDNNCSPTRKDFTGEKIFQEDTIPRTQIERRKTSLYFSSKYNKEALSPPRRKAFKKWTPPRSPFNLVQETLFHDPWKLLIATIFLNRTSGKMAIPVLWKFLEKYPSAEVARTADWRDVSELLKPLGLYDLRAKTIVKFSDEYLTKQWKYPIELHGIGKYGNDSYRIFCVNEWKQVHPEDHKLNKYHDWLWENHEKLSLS
Chain of N-glycosylase/DNA lyase (Homo sapiens) (O15527 whole entry): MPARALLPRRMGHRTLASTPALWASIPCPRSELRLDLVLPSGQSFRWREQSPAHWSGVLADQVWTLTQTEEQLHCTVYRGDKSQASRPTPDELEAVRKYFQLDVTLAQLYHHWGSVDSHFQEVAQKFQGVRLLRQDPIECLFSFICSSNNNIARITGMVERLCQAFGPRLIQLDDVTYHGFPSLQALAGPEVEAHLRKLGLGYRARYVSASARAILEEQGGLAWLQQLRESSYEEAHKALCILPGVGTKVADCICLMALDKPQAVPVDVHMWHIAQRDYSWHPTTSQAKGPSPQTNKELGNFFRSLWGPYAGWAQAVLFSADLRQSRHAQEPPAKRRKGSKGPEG
Chain of Endonuclease 8-like 1 (Homo sapiens) (Q96FI4 whole entry): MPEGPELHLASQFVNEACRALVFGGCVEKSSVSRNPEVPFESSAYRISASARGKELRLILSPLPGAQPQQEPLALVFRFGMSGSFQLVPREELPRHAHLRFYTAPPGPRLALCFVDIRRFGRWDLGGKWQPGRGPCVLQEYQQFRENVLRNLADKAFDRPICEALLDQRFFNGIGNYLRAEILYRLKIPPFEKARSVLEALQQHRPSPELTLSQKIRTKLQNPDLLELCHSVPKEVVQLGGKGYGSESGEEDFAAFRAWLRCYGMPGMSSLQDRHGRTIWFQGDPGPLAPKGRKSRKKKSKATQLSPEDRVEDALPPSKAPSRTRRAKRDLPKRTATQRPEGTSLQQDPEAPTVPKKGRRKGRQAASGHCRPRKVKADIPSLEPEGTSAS
Chain of G/T mismatch-specific thymine DNA glycosylase (Homo sapiens) (Q13569 whole entry): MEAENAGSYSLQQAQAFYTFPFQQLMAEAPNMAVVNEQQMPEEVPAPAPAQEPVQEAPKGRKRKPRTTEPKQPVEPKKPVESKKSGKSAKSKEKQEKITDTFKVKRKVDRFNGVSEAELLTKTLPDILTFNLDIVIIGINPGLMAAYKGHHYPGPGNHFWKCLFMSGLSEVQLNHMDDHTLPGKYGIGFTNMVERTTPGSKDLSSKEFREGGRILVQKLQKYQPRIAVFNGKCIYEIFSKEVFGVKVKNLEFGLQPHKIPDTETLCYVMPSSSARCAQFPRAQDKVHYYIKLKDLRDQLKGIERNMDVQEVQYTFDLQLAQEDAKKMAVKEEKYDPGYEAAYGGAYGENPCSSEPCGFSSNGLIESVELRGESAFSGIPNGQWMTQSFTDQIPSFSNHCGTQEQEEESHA

| SMILES | inhibition ([1]; Compound Concentration 1.0 uM) [%] | inhibition ([2]; Compound Concentration 1.0 uM) [%] | inhibition ([3]; Compound Concentration 1.0 uM) [%] | inhibition ([4]; Compound Concentration 1.0 uM) [%] | inhibition ([5]; Compound Concentration 1.0 uM) [%] | inhibition ([6]; Compound Concentration 1.0 uM) [%] | inhibition ([7]; Compound Concentration 1.0 uM) [%] | inhibition ([8]; Compound Concentration 1.0 uM) [%] | inhibition ([9]; Compound Concentration 1.0 uM) [%] | inhibition ([1]; Compound Concentration 10.0 uM) [%] | inhibition ([2]; Compound Concentration 10.0 uM) [%] | inhibition ([3]; Compound Concentration 10.0 uM) [%] | inhibition ([4]; Compound Concentration 10.0 uM) [%] | inhibition ([5]; Compound Concentration 10.0 uM) [%] | inhibition ([6]; Compound Concentration 10.0 uM) [%] | inhibition ([7]; Compound Concentration 10.0 uM) [%] | inhibition ([8]; Compound Concentration 10.0 uM) [%] | inhibition ([9]; Compound Concentration 10.0 uM) [%] |
| --- | --- | --- | --- | --- | --- | --- | --- | --- | --- | --- | --- | --- | --- | --- | --- | --- | --- | --- |
| CS(=O)(=O)N1CCCC(NC(=O)[C@H](CCC2CCCCC2)NC(=O)c2ccc(CNC(=O)c3cnc4ccccn34)cc2)C1 (stereo partly specified) | 27.9 | -1.13 | -0.0491 | -2.03 | 7.17 | -1.52 | 10.6 | 41.5 | 0.321 | – | – | – | – | – | – | – | – | – |
| Cc1cc(SCc2sc(-c3ccc(C(F)(F)F)cc3)nc2C)ccc1OCC(=O)O | – | – | – | – | – | – | – | – | – | 60 | 14.6 | -2.11 | 1.55 | 17.8 | 62.7 | 18.5 | 98.5 | -0.945 |
| CC[C@H](C)C(=O)O[C@H]1C[C@@H](C)C=C2C=C[C@H](C)[C@H](CC[C@@H]3C[C@@H](O)CC(=O)O3)[C@H]21 | – | – | – | – | – | – | – | – | – | 71.5 | 12.1 | -4.68 | 4.61 | 5.94 | 11.4 | 15.8 | 49.6 | 8.04 |
| Cc1cc(OCCC(C)(C)O)cc(C)c1-c1ccc(F)c2c1CC[C@H]2Oc1ccc2c(c1)OC[C@H]2CC(=O)O | – | – | – | – | – | – | – | – | – | 64.2 | 10 | -2.26 | -1.76 | -4.57 | 78.7 | 18.5 | 61.7 | 1.96 |
| CC(C)OC(=O)C1=CN(C(=O)c2ccc(F)c(F)c2)CC(C)(C)c2c1[nH]c1ccccc21 | – | – | – | – | – | – | – | – | – | 66.8 | 4.92 | -3.02 | 3.08 | -1.95 | 18.3 | 27.6 | 46.7 | 5.72 |
| O=C(O)c1ccc(C(=O)N[C@@H](c2ccc(OC(F)(F)F)c(F)c2)c2ncccc2F)nc1 | – | – | – | – | – | – | – | – | – | 11.1 | 7.76 | 5.2 | 13.9 | 22.9 | -2.45 | -6.46 | 8.79 | -9.18 |
| N#CN1CC[C@H](C(=O)Nc2nc3c(s2)CN(C(=O)CN=[N+]=[N-])CC3)C1 | – | – | – | – | – | – | – | – | – | 53.6 | -6.77 | 3.04 | 5.89 | 7.92 | -6.61 | 6.53 | 40.4 | 1.18 |
| COc1ncc(-c2ccc3nccc(-c4ccnnc4)c3c2)cc1NS(=O)(=O)c1ccc(F)cc1F | 24 | 13.2 | -9.77 | 15.6 | 9.15 | 1.04 | -0.754 | 51.7 | -3.82 | – | – | – | – | – | – | – | – | – |
| O[C@]1(C(F)(F)F)CCCC[C@H]1Nc1ccc(F)cc1 | 54.7 | -4.37 | 3.35 | 6.91 | 4.63 | -4.39 | 15.6 | 46.6 | 2.12 | – | – | – | – | – | – | – | – | – |
| CCNC(=O)N1CCCN(c2ccc(C(=O)NCCc3ccc(Cl)cc3Cl)cc2NC(=O)c2cccc(Cl)c2)CC1 | – | – | – | – | – | – | – | – | – | -1.37 | 5.24 | 3.27 | 3.98 | -5.21 | -8.02 | 5.69 | 3.38 | 3.51 |
| Cc1cc([C@@H](C)Nc2ccccc2C(=O)O)c2nc(N3CCOCC3)cc(=O)n2c1 | – | – | – | – | – | – | – | – | – | -6.46 | 10.5 | 0.798 | 2.93 | -1.31 | 12 | 20.9 | 50.8 | 3.71 |
| CC1=C(C#N)C(c2ccc3c(c2)c(NC(=O)c2ccccc2C)nn3C)C(C#N)=C(C)N1 | – | -2.97 | 1.19 | – | 2.88 | – | 16.1 | 29.4 | 1.91 | 65.1 | 15.1 | -2.11 | 0.0213 | -3.26 | 7.85 | 24.1 | 58.9 | 6.97 |
| C[C@]1(O)C[C@@H](c2nc(-c3ccc4ccc(-c5ccccc5)nc4c3)c3c(N)nccn32)C1 | – | – | – | – | – | – | – | – | – | 2.7 | 25.7 | 4.89 | 12.6 | 10.6 | -7.95 | 18.4 | 57.9 | 7.32 |
| N#Cc1cnc(Nc2cc(NC[C@H]3CNCCO3)c(C(F)(F)F)cn2)cn1 | 13.8 | 2.62 | -5.15 | -5.15 | -0.61 | 7.47 | 34.2 | 53.2 | 6.29 | – | – | – | – | – | – | – | – | – |
| Cc1cc(OC2CCS(=O)(=O)CC2)cc(C)c1-c1cccc(COc2ccc(C(=O)O)c(F)c2)c1 | – | – | – | – | – | – | – | – | – | 67.4 | 8.53 | -1.96 | -1.51 | -5.23 | 31.5 | 23.6 | 100 | 6.33 |
